Positions of bridges follow the written chain, without caps; N, C: chain ends. Non-standard residues stand in square brackets, D forms with d. Residues, ends and D or L forms follow the SMILES beside them. Leu(3R-O(AcLeu(3R-OH))) = CC(=O)N[C@H](C(=O)O[C@H](C(C)C)[C@H](N)C(=O)O)[C@H](O)C(C)C; NMeT = CN[C@H](C(=O)O)[C@@H](C)O; dPhLac = O=C(O)[C@H](O)Cc1ccccc1; NMeA = CN[C@@H](C)C(=O)O; NMeDha = C=C(NC)C(=O)O
Tests used:
DRG nociceptors = experiment: Whole cell patch-clamp recordings of acutely dissociated DRG nociceptors; type: cell-based, mouse
Experimental: F. Acutely dissociated dorsal root ganglion (DRG) Preparation. Male or female mice between 1 and 2 months of age were used for acute DRG isolations. […] Dissociated DRG cultures were prepared as previously described (Perner C et al. “Protocol for dissection and culture of murine dorsal root ganglia neurons to study neuropeptide release.” STAR Protoc (2021) 2:100333). Briefly, DRGs were dissected from 1- to 2-month-old mice in Hank's buffered salt solution (HBSS) and digested with Collagenase A and Dispase II for 25 min at 37° C., centrifuged at 200×g for 5 min, and washed with Dulbecco's modified Eagle's medium (DMEM) supplemented with 10% fetal bovine serum (FBS), glutamate, sodium pyruvate, 1% penicillin and 1% streptomycin. DRGs were then triturated in Neurobasal A medium supplemented with 10% FBS, 1% penicillin, 1% streptomycin, 1% GlutaMAX, 2% B27, […] nerve growth factor (NGF) and […] glial cell line-derived neurotrophic factor (GDNF). After plating on laminin-coated coverslips, cells were incubated at 37° C. overnight. Experiments were performed the day after dissection.
G. Whole cell patch-clamp recordings. Nociceptors were identified by physiological classification protocols (Petruska J C et al. “Subclassified acutely dissociated cells of rat DRG: histochemistry and patterns of capsaicin-, proton-, and ATP-activated currents.” J Neurophysiol (2000) 84:2365-2379) summarized in FIG. 10 and further by responsivity to morphine. Each experimental group consisted of 12-18 DRG recordings from three animals, 1-2 of which were female. Hyperpolarization-activated current (Ih) and kinetics of resulting transient currents were determined by stepping membrane potential from −60 to −110 mV for 500 ms in 10 mV increments (FIG. 10A). Outward currents were identified by first preconditioning membrane potential at −100 mV for 500 ms and then stepping from −60 to 40 mV in 20 mV increments for 200 ms (FIG. 10D). Inward current dynamics were determined by preconditioning at −80 mV and then stepping from −60 to 40 mV in 10 mV increments (FIG. 10G). A 6-s, 0- to 2-nA continuous ramp stimulation protocol was used to determine rheobase. Membrane capacitance (Cm), series resistance (Rs) and input resistance (Ri) were tested with a hyperpolarizing 10 mV pulse of 10 ms duration initially and at a 30 s interval throughout the recording period. Cells were recorded only if initial series resistance was ≤20 MΩ and excluded if Rs varied >20% while recording. Offline analysis identified clustering of a population n=30 with uniform morphine responsivity that was selected for further analysis, with basal parameters #SEM: Cm=27.31±4.72 pF, Ri=492±19.29 MQ, Ih=7.10±2.45 pA·pF−1, IA tau=8.39±0.41 ms and action potential (AP) tau=1.22±0.08 ms. K+ internal was used for all recordings, containing: 6 mM NaCl, 4 mM NaOH, 130 mM K-gluconate, 11 mM ethylene glycol-bis(β-aminoethyl ether)tetraacetic acid (EGTA), 1 mM CaCl2, 1 mM MgCl2, 10 mM N-(2-hydroxyethyl)piperazine-N′-(2-ethanesulphonic acid) (HEPES), 2 mM Na2ATP, and 0.2 mM Na2GTP 0.2, adjusted to pH 7.3-7.4 with HCl. External artificial CSF contained: 125 mM NaCl, 3 mM KCl, 1.2 mM KH2PO4, 1.2 mM MgSO4, 25 mM NaHCO3, 2 mM CaCl2), and 10 mM dextrose 10, adjusted to pH 7.3-7.4 with HCl.

C57BL/6 mice = tested on: C57BL/6 mice
Source text: A. Experimental animals. C57BL/6 mice (6-8 weeks old) of both sexes were used. Mice were housed in groups on a 12-h light-dark cycle (6:00 am light cycle; 6:00 pm dark cycle) with food (Teklad Global 16% protein rodent diets; Envigo Inc., WI, USA) and water available ad libitum. Animal groups were compiled to ensure minimization of factors (e.g., weight, sex, and health). Mice were within 20-28 g in weight at start of all studies. All tested groups contained a control group and consisted of male and female mice. Males and females were tested on the same day but at different times so that they were not in the room at the same time. All the experiments were tested during the light cycle between 8:00 am and 3:00 pm to avoid any long-term disruption of sleep cycles. Mice were transferred to the behavioural testing room at least 45 min before the first test to acclimatize. Following behavioural evaluation, animals were killed by CO2 inhalation, followed by cervical dislocation and postmortem decapitation.
B. Drug treatments. […] The dose of YM-254890 for subcutaneous injection was taken from previous published studies. The dose of morphine selected for subcutaneous administration (2.5, 5 and 10 mg kg-1) is commonly used in mouse analgesia. For the combined administration of morphine and YM-254890 on thermal anti-nociception, YM-254890 was administered 10 min before the morphine. The latency of response was measured before injection of drugs (baseline latency response) and at different time intervals (post-treatment latency response) after drugs injection.
C. Intrathecal injections. Intrathecal (i.t.) administration was performed following the method described previously (Hylden J L et al. “Intrathecal morphine in mice: a new technique.” Eur J Pharmacol (1980) 67:313-316; Li D et al. “Direct Intrathecal Injection of Recombinant Adeno-associated Viruses in Adult Mice.” J Vis Exp (2019)) with slight modifications. All intrathecal injections were performed using a 25 μL Hamilton syringe with a 30-gauge needle. The injection volume was 5 μL for each mouse. […] Each solution was injected without injection cannulae. Intrathecal injections were made into the L5-L6 intervertebral space of unanesthetized mice. The flick of the tail was considered indicative of a successful i.t. administration.

[1] = co-application 100 nM YM + 1 μM morphine

## C=C1C(=O)N[C@@H](C)C(=O)N(C)[C@@H](C)C(=O)N[C@@H]([C@H](OC(=O)[C@@H](NC(C)=O)[C@H](O)C(C)C)C(C)C)C(=O)N(C)[C@@H]([C@@H](C)OC)C(=O)O[C@H](C)[C@H](NC(C)=O)C(=O)O[C@H](Cc2ccccc2)C(=O)N1C [YM-254890] (Ac-T[dPhLac][NMeDha]A[NMeA][Leu(3R-O(AcLeu(3R-OH)))][NMeT](Me); ester 1-C)
DRG nociceptors; 10 nM substance P followed by 10 nM SP and 100 nM YM
  inhibition of substance P induced excitation of DRG nociceptors: inhibit the effects of substance P
DRG nociceptors; 100 nM YM versus 1 μM morphine
  magnitude of decrease in excitability relative to morphine: smaller as compared with morphine
DRG nociceptors; YM-254890 or morphine alone
  rapidly inactivating A-type potassium currents (IA), voltage-step protocol 2: significantly inhibited IA
DRG nociceptors; bath application alone: 100 nM YM or 1 μM morphine
  AP amplitude, voltage-step protocol: moderately reduced AP amplitude
DRG nociceptors; bath application alone: 1 μM morphine or 100 nM YM
  excitability of DRG nociceptors (rheobase, 0-2 nA ramp stimulation): significant decrease in the excitability
DRG nociceptors; [1]
  action potential firing in 0-2 nA ramp protocol: prevented action potential firing throughout the 2-nA ramp protocol in all recordings
  evoked AP responses, voltage-step protocol: largely prevented evoked AP responses
DRG nociceptors; co-application 100 nM YM + 1 μM morphine, listed as YM
  evoked AP responses, voltage-step protocol: greatly inhibited evoked depolarization
DRG nociceptors; coadministration of YM-254890 and morphine
  rapidly inactivating A-type potassium currents (IA), voltage-step protocol 2: nearly eliminated IA
C57BL/6 mice; YM-254890 0.5 mg/kg s.c. 10 min before morphine 5 mg/kg s.c., 120 min
  effect on morphine locomotor-sensitizing effect, open-field test: completely suppressed these effects
C57BL/6 mice; YM-254890 0.5 mg/kg s.c. with morphine 5 mg/kg s.c., comparable with YM-254890 alone
  locomotion in open-field test: substantial decrease in locomotion
C57BL/6 mice; YM-254890 intrathecal 3.0 nmol, alone or in combination with morphine 2.5 mg/kg s.c., 120 min
  motor activity in open-field test after intrathecal delivery: no significant changes in motor activity

— patent US20250177478A1, “G ALPHA Q/11 INHIBITORS FOR USE AS AN ANALGESIC” (University of Florida Research Foundation, Incorporated, priority 2022, published 2025)
